Measurements taken from PMC12527922, “Cocaine chemogenetics blunts drug-seeking by synthetic physiology” (Nature, 2025).
Values joined by “and” are separate entries in the source; they are usually repeats but may differ in a detail not shown here. Equal entries are not always repeated.

Test system: GRABDA dopamine sensor, nucleus accumbens shell
Test: Fibre photometry of dopamine (GRABDA) after cocaine administration
Format: in vivo, rat
Conditions: for GRABDA dopamine signal, Mean: ED Fig. 9d; for GRABDA response versus saline: cocaine 5, 10, 20 mg per kg i.p.
Experimental: Male Sprague–Dawley rats were anaesthetized with isoflurane (1.5–2%) and then placed onto a stereotaxic frame (Kopf) and injected with AAV5-Syn::coca-5HT3-IRES-mCherry (0.5 µl, 4.95 × 10^12 vg per ml) into the LHb (AP, −3.8 mm relative to bregma; ML, ±0.7 mm; DV, −5.25 mm, at a 10° angle) (n = 5) or underwent sham surgery (n = 6). Rats were also implanted with an optic fibre (400 µm core, 0.50 NA) attached to a 2.5 mm diameter ferrule (Thorlabs) directed to the medial shell of the nucleus accumbens (AP, +1.7 mm relative to bregma; ML, ±0.9 mm; DV, −7.0 mm). To ensure that AAV9-Syn::GRABDA1m was transduced at the direct vicinity of the fibre tip, we coated the fibre with the AAV (0.4 µl, 5 × 10^12 vg per ml) using a silk fibroin film before its implantation as previously described.
For fibre photometry, dopamine (GRABDA) dynamics were measured using a Tucker-Davis Technologies (TDT) system in anaesthetized rats. […] Data were acquired at 1 kHz. On the testing day, rats were anaesthetized (isoflurane: induction, 5%; maintenance, 3%) and attached to a photometry patch cord (400 μm core, 0.50 NA). GRABDA signals were then collected for 5 min, followed by a saline i.p. injection, and additional GRABDA signal measurement for 20 min. Cocaine was then injected i.p. at 20, 10 or 5 mg per kg, and the GRABDA signal was measured for an additional 20 min. Each rat was tested three times with cocaine doses administered in randomized order. Fibre photometry analyses were performed using scripts in MATLAB R2023b (MathWorks) based on codes from the Barker (https://github.com/djamesbarker)[64] and Lerner (https://github.com/talialerner/)[65] laboratories. […] The GRABDA signal was normalized to values at 1 min before saline or cocaine injection and shown as the average z-scored activity per min. […] Fibre photometry data are represented as mean ± s.e.m. Statistical analyses were performed using Prism 10 (GraphPad).

[1] = ED Fig. 9a, Cocaine 10 mg/kg, Time 5
[2] = ED Fig. 9a, Cocaine 10 mg/kg, Time 6
[3] = ED Fig. 9a, Cocaine 10 mg/kg, Time 7
[4] = ED Fig. 9a, Cocaine 10 mg/kg, Time 8
[5] = ED Fig. 9a, Cocaine 10 mg/kg, Time 9
[6] = ED Fig. 9a, Cocaine 10 mg/kg, Time 10
[7] = ED Fig. 9a, Cocaine 10 mg/kg, Time 11
[8] = ED Fig. 9a, Cocaine 10 mg/kg, Time 12
[9] = ED Fig. 9a, Cocaine 10 mg/kg, Time 13
[10] = ED Fig. 9a, Cocaine 10 mg/kg, Time 14
[11] = ED Fig. 9a, Cocaine 10 mg/kg, Time 15
[12] = ED Fig. 9a, Cocaine 10 mg/kg, Time 16
[13] = ED Fig. 9a, Cocaine 10 mg/kg, Time 17
[14] = ED Fig. 9a, Cocaine 10 mg/kg, Time 18
[15] = ED Fig. 9a, Cocaine 10 mg/kg, Time 19
[16] = ED Fig. 9a, Cocaine 10 mg/kg, Time -1

COC(=O)[C@H]1[C@@H](OC(=O)c2ccccc2)C[C@@H]2CC[C@H]1N2C [cocaine]
GRABDA dopamine signal, single rats (ED Fig. 9a, Cocaine 10 mg/kg, Time 4): 1.256 and 1.397 and 0.09982 and 0.6394 and 1.0999 and 0.05112 | GRABDA dopamine signal, AVG [1]: 1.193 | GRABDA dopamine signal, single rats [1]: 1.343 and 2.078 and 0.3984 and 0.8156 and 2.4787 and 0.0445 | GRABDA dopamine signal, AVG [2]: 1.422 | GRABDA dopamine signal, single rats [2]: 1.711 and 2.382 and 0.7218 and 1.242 and 2.331 and 0.1429 | GRABDA dopamine signal, AVG [3]: 1.596 | GRABDA dopamine signal, single rats [3]: 1.781 and 2.522 and 1.248 and 1.497 and 2.407 and 0.1218 | GRABDA dopamine signal, AVG [4]: 1.699 | GRABDA dopamine signal, single rats [4]: 2.125 and 2.686 and 1.2639 and 1.736 and 2.313 and 0.06957 | GRABDA dopamine signal, AVG [5]: 1.935 | GRABDA dopamine signal, single rats [5]: 2.098 and 2.8744 and 1.781 and 1.888 and 2.927 and 0.03932 | GRABDA dopamine signal, AVG [6]: 2.176 | GRABDA dopamine signal, single rats [6]: 2.19 and 2.83 and 2.002 and 2.24 and 3.737 and 0.0549 | GRABDA dopamine signal, AVG [7]: 2.088 | GRABDA dopamine signal, single rats [7]: 2.259 and 2.779 and 2.031 and 2.445 and 2.889 and 0.1232 | GRABDA dopamine signal, AVG [8]: 1.996 | GRABDA dopamine signal, single rats [8]: 2.418 and 2.64 and 2.12 and 2.366 and 2.425 and 0.00481 | GRABDA dopamine signal, AVG [9]: 2.15 | GRABDA dopamine signal, single rats [9]: 2.55 and 2.491 and 2.555 and 2.51 and 2.634 and 0.161 | GRABDA dopamine signal, AVG [10]: 2.1808 | GRABDA dopamine signal, single rats [10]: 2.759 and 2.573 and 2.372 and 2.6549 and 2.629 and 0.09693 | GRABDA dopamine signal, AVG [11]: 2.145 | GRABDA dopamine signal, single rats [11]: 2.608 and 2.303 and 2.535 and 2.6631 and 2.692 and 0.06715 | GRABDA dopamine signal, AVG [12]: 2.005 | GRABDA dopamine signal, single rats [12]: 2.483 and 2.2 and 2.525 and 2.513 and 2.213 and 0.09632 | GRABDA dopamine signal, AVG [13]: 2.106 | GRABDA dopamine signal, single rats [13]: 2.751 and 1.972 and 2.4136 and 2.994 and 2.448 and 0.05475 | GRABDA dopamine signal, AVG [14]: 1.975 | GRABDA dopamine signal, single rats [14]: 2.385 and 1.7832 and 2.833 and 2.375 and 2.433 and 0.03971 | GRABDA dopamine signal, AVG [15]: 1.865 | GRABDA dopamine signal, single rats [15]: 2.396 and 1.613 and 2.323 and 2.558 and 2.225 and 0.07693 | GRABDA dopamine signal, AVG [16]: 0.04715 | GRABDA dopamine signal, single rats [16]: 0.0433 and 0.0669 and 0.08953 and 0.0687 | GRABDA dopamine signal, AVG (ED Fig. 9c, Cocaine 20 mg/kg, Time 0): 0.0619 | GRABDA dopamine signal, AVG (ED Fig. 9c, Cocaine 20 mg/kg, Time 1): 0.07229 | GRABDA dopamine signal, AVG (ED Fig. 9c, Cocaine 20 mg/kg, Time 2): 0.3247 | GRABDA dopamine signal, AVG (ED Fig. 9c, Cocaine 20 mg/kg, Time 3): 0.7746 | GRABDA dopamine signal, AVG (ED Fig. 9c, Cocaine 20 mg/kg, Time 4): 1.201 | GRABDA dopamine signal, AVG (ED Fig. 9c, Cocaine 20 mg/kg, Time 5): 1.589 | GRABDA dopamine signal, AVG (ED Fig. 9c, Cocaine 20 mg/kg, Time 6): 1.681 | GRABDA dopamine signal, AVG (ED Fig. 9c, Cocaine 20 mg/kg, Time 7): 1.863 | GRABDA dopamine signal, AVG (ED Fig. 9c, Cocaine 20 mg/kg, Time 8): 1.725 | GRABDA dopamine signal, AVG (ED Fig. 9c, Cocaine 20 mg/kg, Time 9): 1.85 | GRABDA dopamine signal, AVG (ED Fig. 9c, Cocaine 20 mg/kg, Time 10): 1.747 | GRABDA dopamine signal, AVG (ED Fig. 9c, Cocaine 20 mg/kg, Time 11): 1.666 | GRABDA dopamine signal, AVG (ED Fig. 9c, Cocaine 20 mg/kg, Time 12): 1.553 | GRABDA dopamine signal, AVG (ED Fig. 9c, Cocaine 20 mg/kg, Time 13): 1.4 | GRABDA dopamine signal, AVG (ED Fig. 9c, Cocaine 20 mg/kg, Time 14): 1.393 | GRABDA dopamine signal, AVG (ED Fig. 9c, Cocaine 20 mg/kg, Time 15): 1.467 | GRABDA dopamine signal, AVG (ED Fig. 9c, Cocaine 20 mg/kg, Time 16): 1.282 | GRABDA dopamine signal, AVG (ED Fig. 9c, Cocaine 20 mg/kg, Time 17): 1.1 | GRABDA dopamine signal, AVG (ED Fig. 9c, Cocaine 20 mg/kg, Time 18): 1.175 | GRABDA dopamine signal, AVG (ED Fig. 9c, Cocaine 20 mg/kg, Time 19): 1.238 | GRABDA dopamine signal, AVG (ED Fig. 9c, Cocaine 20 mg/kg, Time -1): -0.01168 | GRABDA dopamine signal, Mean (Cocaine 20 mg/kg, Time 0): -0.2698 | GRABDA dopamine signal, Mean (Cocaine 20 mg/kg, Time 1): -0.1247 | GRABDA dopamine signal, Mean (Cocaine 20 mg/kg, Time 2): 0.09345 | GRABDA dopamine signal, Mean (Cocaine 20 mg/kg, Time 3): 0.3137 | GRABDA dopamine signal, Mean (Cocaine 20 mg/kg, Time 4): 0.5516 | GRABDA dopamine signal, Mean (Cocaine 20 mg/kg, Time 5): 0.5577 | GRABDA dopamine signal, Mean (Cocaine 20 mg/kg, Time 6): 0.3392 | GRABDA dopamine signal, Mean (Cocaine 20 mg/kg, Time 7): 0.3431 | GRABDA dopamine signal, Mean (Cocaine 20 mg/kg, Time 8): 0.2873 | GRABDA dopamine signal, Mean (Cocaine 20 mg/kg, Time 9): 0.5323 | GRABDA dopamine signal, Mean (Cocaine 20 mg/kg, Time 10): 0.4252 | GRABDA dopamine signal, Mean (Cocaine 20 mg/kg, Time 11): 0.3604 | GRABDA dopamine signal, Mean (Cocaine 20 mg/kg, Time 12): 0.1832 | GRABDA dopamine signal, Mean (Cocaine 20 mg/kg, Time 13): 0.2813 | GRABDA dopamine signal, Mean (Cocaine 20 mg/kg, Time 14): 0.2778 | GRABDA dopamine signal, Mean (Cocaine 20 mg/kg, Time 15): 0.4094 | GRABDA dopamine signal, Mean (Cocaine 20 mg/kg, Time 16): 0.4918 | GRABDA dopamine signal, Mean (Cocaine 20 mg/kg, Time 17): 0.3214 | GRABDA dopamine signal, Mean (Cocaine 20 mg/kg, Time 18): 0.2818 | GRABDA dopamine signal, Mean (Cocaine 20 mg/kg, Time 19): 0.2119 | GRABDA dopamine signal, Mean (Cocaine 20 mg/kg, Time -1): 0.05504 | GRABDA response versus saline (coca-5HT3 rats): did not produce statistically significant increases | GRABDA response versus saline (control rats): significantly increased
